{
  "source": "ChEMBL document CHEMBL5725945",
  "about": "“Autotaxin inhibitors” (2018)",
  "target": "Autotaxin (Homo sapiens, UniProt Q13822)",
  "assay": "Quanta Red Assay: Measuring ATX activity using an enzyme coupled Quanta Red assay (Thermo Scientific Pierce Protein Research Products, Product #15159) was determined as follows. 8 μL human recombinant ATX (final concentration 0.8 μg/mL) in 1× Assay buffer containing 50 mM Tris-HCl (pH 8.0), 5 mM CaCl2 was added to an opaque black flat-bottom 384-well plate (Corning, #3575) containing 2 μL test compound in 40% DMSO (4% final DMSO concentration). 10 μL of Quanta Red, Horseradish peroxidase (HRP), Choline Oxidase (CO), Rac-1-Palmitoyl-glycero-3-phosphocholine solution (final concentration 1:250 for Quanta Red, 0.5units/ml HRP, 0.5units/ml CO, 15 μM Rac-1-Palmitoyl-glycero-3-phosphocholine) in 1× assay buffer (as described previously) was added to each well to start the reaction and the plate was incubated at room temperature for 2 hours. The reaction was stopped after 2 hours with a 20 μL addition of Quanta Red Stop solution (1:20 dilution in distilled water). The above-described mixture with DMSO alone was used as a positive control whereas that with DMSO alone without ATX was taken as a negative control. For each test compound, ten concentrations were measured covering a range of 6.1 nM to 120 μM to determine IC50 values. The top concentration was decreased to 1.2 μM when a test compound's IC50 value was evaluated in low nanomolar range. Fluorescence was determined in a BMG Labtech Pherastar plus plate reader (λ emission=540 nm, λ excitation=590 nm). Data were analysed using Excel fit software.",
  "data": [
    {"smiles": "CCC(C)CCc1nnc(NC(=O)C2CC(=O)N(c3ccc(CN4CCOCC4)cc3)C2)s1", "note": "(stereo not drawn)", "values": [
      {"measurement": "IC50", "value": 11, "unit": "nM"}
    ]},
    {"smiles": "O=C(Nc1nnc(CCC2CCOCC2)s1)C1CC(=O)N(c2ccc(CN3CCOCC3)cc2)C1", "note": "(stereo not drawn)", "values": [
      {"measurement": "IC50", "value": 358, "unit": "nM"}
    ]},
    {"smiles": "CCCN(CC)Cc1ccc(N2CC(C(=O)Nc3nnc(CCc4ccc(Cl)cc4)s3)CC2=O)cc1", "note": "(stereo not drawn)", "values": [
      {"measurement": "IC50", "value": 4, "unit": "nM"}
    ]},
    {"smiles": "O=C(Nc1nnc(CCC2CCCC2)s1)C1CC(=O)N(c2ccc(CN3CCOCC3)cc2)C1", "note": "(stereo not drawn)", "values": [
      {"measurement": "IC50", "value": 3, "unit": "nM"}
    ]},
    {"smiles": "CN1CCN(Cc2ccc(N3C[C@H](NC(=O)c4nnc(CCc5ccc(Cl)cc5)s4)CC3=O)cc2)CC1", "values": [
      {"measurement": "IC50", "value": 124, "unit": "nM"}
    ]},
    {"smiles": "CCCN(C)Cc1ccc(N2CC(C(=O)Nc3nnc(CCc4ccc(Cl)cc4)s3)CC2=O)cc1", "note": "(stereo not drawn)", "values": [
      {"measurement": "IC50", "value": 3, "unit": "nM"}
    ]},
    {"smiles": "O=C(Nc1cc(CCc2ccc(Cl)cc2)[nH]n1)C1CC(=O)N(c2ccc(CN3CCOCC3)cc2)C1", "note": "(stereo not drawn)", "values": [
      {"measurement": "IC50", "value": 5, "unit": "nM"}
    ]},
    {"smiles": "O=C1CN(Cc2ccc(N3C[C@H](NC(=O)c4nnc(CCc5ccc(Cl)cc5)s4)CC3=O)cc2)CCN1", "values": [
      {"measurement": "IC50", "value": 8, "unit": "nM"}
    ]}
  ]
}
